We go through 7 compounds from patent US4968686A, “Acyclic pyrrolo [2,3-d]pyrimidine analogs as antiviral agents” (The Regents of The University of Michigan, priority 1989, dated 1990).

The test system of one test is KB cells. The test can be described thus: Growth of KB cells (population doubling times). The test is classed as cell-based, human. The settings on record: for Population Doubling time: KB cells, control 23 hr. Here is the method:
Population doubling times and cell viability were measured in uninfected HFF and/or KB cells. Cells were planted in replicate 6-well plastic tissue culture dishes or in 25 cm^2 flasks as described above in part 1. Following an incubation period during which cells attached to the substrate, medium was decanted, the cell sheet rinsed once with HBS, and fresh medium added. The medium consisted of MEM(E) with 1.1 gm NaHCO3 /liter and 10% fetal bovine or calf serum plus appropriate log or half-log concentrations of drug. After additional periods of incubation from 1 to 72 hours at 37° C., cells were harvested by means of 0.05% trypsin plus 0.02% EDTA in a HEPES-buffered salt solution. Cells were enumerated using either a Coulter counter or a hemocytometer and viability determining using trypsan blue dye exclusion.
In more extensive cytotoxicity testing, the halogenated compounds were tested for effects on the growth of KB cells. Populations doubling times were calculated from the logarithmic portions of growth curves and were as follows: […]

The next test deals with HCMV DNA synthesis. The test can be described thus: HCMV DNA synthesis by dot-blot hybridization. The test is classed as cell-based, human cytomegalovirus in HFF cells. The settings on record: Human betaherpesvirus 5, read-out: HCMV DNA Synthesis, 50% Inhibitory Concentration. Here is the method:
The amount of HCMV DNA synthesis was determined in two types of experiments: (a) as an integral part of HCMV titer (yield) reduction experiments and (b) as separate experiments to determine only the amount of viral DNA synthesis in the absence or presence of test compounds.
HFF cells were planted in 25 cm^2 flasks and infected with HCMV as described in part 2 and incubated at 37° C. Before harvesting at selected times by the addition of 0.1 volume of 0.2M EDTA, an aliquot of medium was removed for determination of HCMV titer. After harvesting cells into the medium, aliquots were retained for determination of HCMV DNA by hybridization.
HFF cells were planted in 96-well cluster plates at 20,000 cell/well in 200 μl of growth medium [MEM(E)] with 1.1 gm/liter NaHCO3 and 10% fetal bovine serum. After incubation in a humidified atmosphere of 4% CO2 -96% air for 1 to 2 days, growth medium was aspirated and the 70% confluent cells were infected at a m.o.i. of 0.5 p.f.u. per cell by addition of HCMV in 100 μl of MEM(E) with 1.1 gm/l liter NaHCO3 and 5% fetal bovine serum (maintenance medium). Following a 1-hour incubation at 37° C. for virus adsorption, 100 μl of selected concentrations of test compounds were added to each of triplicate wells in twice their final concentration of maintenance medium. Usually 3 to 6 concentrations of compounds were tested in 3.2- or 10-fold dilutions along with appropriate triplicate no drug and no virus controls. Plates were incubated for 7 days and harvested by addition of 100 μl of 0.25M EDTA per well. After a 30-minute incubation of 37° C. to free the cells, the contents of the wells were filtered as described below or frozen at -76° C. for subsequent analysis. The following procedure adapted from Gadler, H., Antimicrob. Agents Chemother., 24:370 (1983) was employed for the hybridization portion of the assay:
The contents of each well were removed and filtered through Gene Screen™ (NEN Research Products), presoaked in 10×SSC (1×SSC is 0.15M NaCl, 0.015M NaCitrate), using a 96-well filtration manifold (Schleicher and Schuell). The original microtiter plate wells were rinsed with 200 μl HEPES buffered saline and the contents added to the filter manifold.
The Gene Screen membrane was dried at room temperature and then baked at 80° to 100° C. for 3 to 4 hours. The DNA on the membrane was denatured by placing the membrane (sample side up) sequentially on filter papers soaked in (a) 0.5M NaOH for 30 minutes, (b) 0.1 M NaOH, 1.5M NaCl for 5 minutes, (c) 1M Tris HCl, pH 7.5 twice each for 5 minutes, (d) 0.5M Tris HCl, pH 7.5, 1.5M NaCl for 5 minutes and then dried at room temperature. The membrane was added to a "hybridization bag" and prehybridized at 65° C. for (greater or equal to) 6 hours in 10 ml 0.2% polyvinylpyrrolidone (MW 40,000); 0.2% ficoll (MW 400,000); 0.2% bovine serum albumin; 0.05 M Tris HCl, pH 7.5; 0.1% sodium pyrophosphate; 1M NaCl; 10% dextran sulfate (ME 500,000) and 0.1 mg/ml denatured salmon testes DNA. […]
Following hybridization, the membrane was washed sequentially in 100 ml 2×SSC at room temperature twice each for 5 minutes, 100 ml 2×SCC plus 1% SDS at 65° C. twice each for 30 minutes and then 100 ml 0.1×SSC at room temperature twice each for 30 minutes. The membrane was dried at room temperature and each filtration spot was cut from the membrane and placed into 4 ml of toluene/DPO scintillant and hybridized label counted in a liquid scintillation spectrometer. […]

Setting [1] is: comparison with UMJD 102 / UMJD 183.

Each structure is given as a SMILES string. pIC50: −log10 of the molar value.

Turning to `Nc1ncnc2c1c(Br)cn2COC(CO)CO` [UMJD 183, 4-amino-5-bromo-7-[(1,3-dihydroxy-2-propoxy)methyl]-pyrrolo[2,3-d]pyrimidine], in the test on KB cells, the “duration of KB cell growth in presence of drug before slowing or stopping” value is given as “up to 20 hours”. For the same compound, the “effect on KB cell growth (in words)” value with KB cells (setting [1]) is given as “inhibited, but to a lesser extent”. Moreover, the “KB cell growth for 50 hours (in words)” value in the test with KB cells (up to 32 μM, 50 hours) is reported as “at a reduced rate”.

Take `Nc1ncnc2c1c(I)cn2COCCO` [UMJD 104, 4-Amino-5-iodo-7-(2-hydroxyethoxymethyl)pyrrolo[2,3-d]-pyrimidine]: the “Population Doubling time” value turned out to be 26 h in the test with KB cells (0.1 μM), 25 h with KB cells (1.0 μM) and 30 h in the test with KB cells (10.0 μM). Moreover, the pIC50 in the test on HCMV DNA synthesis was 4.33.

For the compound `Nc1ncnc2c1c(Br)cn2COCCO` [UMJD 102, 4-Amino-5-bromo-7-(2-hydroxyethoxymethyl)pyrrolo[2,3-d]-pyrimidine], the “Population Doubling time” value with KB cells (0.1 μM) came out at 30 h; with KB cells (1.0 μM), 43 h; with KB cells (10.0 μM) it was 84 h. In the test on KB cells (Homo sapiens, KB, read-out: lowest concentration that inhibited growth of KB cells), the minimal effective concentration was determined as 0.1 µM. Also, the “effect on KB cell growth (in words)” value in the test on KB cells (setting [1]) was “cytostatic”. Moreover, in the test on HCMV DNA synthesis, the pIC50 is 5.49.

`Nc1nc2c(ncn2COCCO)c(=O)[nH]1` [Acyclovir, reference compound]: the pIC50 in the test with HCMV DNA synthesis was 4.46.

As to `Nc1ncnc2c1c(Cl)cn2COCCO` [UMJD 100, 4-Amino-5-chloro-7-(2-hydroxyethoxymethyl)pyrrolo[2,3-d]-pyrimidine], the results for the “Population Doubling time” value in the test with KB cells (1.0 μM), in the test with KB cells (10.0 μM) and with KB cells (100.0 μM) were 25 h, 25 h and 27 h, respectively. The “effect on KB cell growth (in words)” value in the test on KB cells (100 μM) is recorded as “only a minor extent”. Moreover, in the test on HCMV DNA synthesis, the pIC50 is 4.82.

On to `Nc1nc(O)c2ncn(COC(CO)CO)c2n1` [Ganciclovir (DHPG), reference compound], for which the pIC50 in the test with HCMV DNA synthesis is 5.96.

For the compound `OCC(CO)OCn1cc(Br)c2c(NO)ncnc21` [UMJD 299, 4-hydroxylamino-5-bromo-7-[(1,3-dihydroxy-2-propoxy)methyl]pyrrolo[2,3-d]pyrimidine], the “KB cell growth rate (in words)” value in the test with KB cells (10 μM) is reported as “nearly control rates”. Besides, in the test with KB cells (setting [1]), the “effect on KB cell growth (in words)” value is “considerably lesser effects on cell growth”.
